What was measured:
Acinetobacter baumannii [1] = assay: Ratio of Kcat to Km of Acinetobacter baumannii AC-54/97 metallo-beta-lactamase IMP-2 expressed in Escherichia coli DH5alpha
Acinetobacter baumannii [2] = assay: Activity of Acinetobacter baumannii AC-54/97 metallo-beta-lactamase IMP-2 expressed in Escherichia coli DH5alpha

SMILES	kcat/Km (Acinetobacter baumannii [1])	Km (Acinetobacter baumannii [2])	kcat (Acinetobacter baumannii [2])
C[C@@H](O)[C@H]1C(=O)N2C(C(=O)O)=C(S[C@@H]3CN[C@H](C(=O)N(C)C)C3)[C@H](C)[C@H]12	3.3	0.3 µM	1 s⁻¹
CC(C)(O/N=C(\C(=O)N[C@@H]1C(=O)N2C(C(=O)[O-])=C(C[n+]3ccccc3)CS[C@H]12)c1csc(N)n1)C(=O)O	0.19	111 µM	21 s⁻¹
CO[C@@]1(NC(=O)Cc2cccs2)C(=O)N2C(C(=O)O)=C(COC(N)=O)CS[C@@H]21	1	7 µM	7 s⁻¹
C[C@@H](O)[C@H]1C(=O)N2C(C(=O)O)=C(SCCNC=N)C[C@H]12	0.92	24 µM	22 s⁻¹
CC1(C)S[C@@H]2[C@H](NC(=O)[C@H](N)c3ccc(O)cc3)C(=O)N2[C@H]1C(=O)O	0.21	110 µM	23 s⁻¹
CC1(C)S[C@@H]2[C@H](NC(=O)[C@H](C(=O)O)c3ccsc3)C(=O)N2[C@H]1C(=O)O	0.36	700 µM	252 s⁻¹

Reference: ChEMBL document CHEMBL1137670, “First occurrence of an IMP metallo-beta-lactamase in Aeromonas caviae: IMP-19 in an isolate from France” (2007)
